Experimental data reported in patent publication US5440033A, “Indolyl-, pyrrolyl- and pyrazolyl substituted benzazepines” (Schering Corporation, priority 1993, dated 1995).
Where two headings read alike, the source gives them in different places.

Experiments:
[1] = Conditioned avoidance response, monkey (parenthesised entries in the Rat CAR column); type: in vivo
dopamine D-1 receptor = target: T1, dopamine D-1 receptor (Rattus norvegicus, UniProt P18901); experiment: Competitive inhibition assay, displacement of 3H-SCH 23390 (D1), rat striatal tissue; type: binding, rat (male Sprague-Dawley); settings: 3H-SCH 23390 0.3 nM, rat striatum, pH 7.4, 37° C., 15 minutes
T1 construct: Striatal tissue was excised, pooled, and homogenized; from tissue; host or cells: rat brain striatum (male Sprague-Dawley)
T1 sequence (P18901 whole entry): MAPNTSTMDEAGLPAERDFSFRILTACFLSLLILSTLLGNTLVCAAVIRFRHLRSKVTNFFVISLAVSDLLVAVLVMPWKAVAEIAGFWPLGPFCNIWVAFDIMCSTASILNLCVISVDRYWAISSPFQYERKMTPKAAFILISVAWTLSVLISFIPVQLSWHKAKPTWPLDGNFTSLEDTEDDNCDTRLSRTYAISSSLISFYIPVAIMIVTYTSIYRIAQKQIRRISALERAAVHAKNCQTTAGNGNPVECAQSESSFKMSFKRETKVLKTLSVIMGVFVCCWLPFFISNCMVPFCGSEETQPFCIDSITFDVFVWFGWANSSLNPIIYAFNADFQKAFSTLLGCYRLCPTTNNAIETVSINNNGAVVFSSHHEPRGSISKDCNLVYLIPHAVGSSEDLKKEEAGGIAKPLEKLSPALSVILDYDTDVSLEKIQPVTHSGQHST
Description: (§1) A methodology for characterization of binding and an interpretation of the data are described by Billard et al., Life Sciences 35, 1885 (1984) in which the binding of the benzazepine (R)-(+)-8-chloro-2,3,4,5-tetrahydro-3-methyl-5-phenyl-1H-3-benzazepin-7-olhemimaleate (SCH 23390) to the dopamine D-1 receptor is characterized.
(§2) Tritiated SCH 23390 and tritiated spiperone (a potent D-2 ligand) were obtained as described in the Billard et al. reference supra and serially diluted in 0.05M Tris buffer, pH 7.4, as required. A compound of the invention is diluted in 0.05M Tris buffer, pH 7.4, as required.
(§3) Male Sprague-Dawley rats (200 to 250 g) from Charles River Breeding Laboratories, Mass. were used to obtain brain tissue. The rats were humanely sacrificed and their brains removed and placed on ice. Striatal tissue was excised, pooled, and homogenized (Brinkman Polytron, 10 seconds) in 100 volumes (w/v) of ice cold 50 mM Tris buffer, pH 7.4 (at 25° C.). The homogenate was centrifuged at 20,000×g for 10 minutes. The resultant pellet was rehomogenized in Tris buffer and centrifuged again. The final pellet was resuspended in 50 mM Tris buffer pH 7.4 containing 120 mM NaCl, […], 1 mM CaCl2, and 1 mM MgCl2.
(§4) Polypropylene incubation tubes received 100 μl of the individual test compounds at various concentrations dissolved or suspended in 0.05M Tris, pH 7.4 containing 4 mg/ml methylcellulose, 100 μl of a solution of ^3 H-SCH 23390 in Tris buffer (final reaction mixture concentration=0.3 nM) or 100 μl of a solution of 3H-spiperone in Tris buffer (final concentration=0.2 nM) and 800 μl of tissue suspension (ca. 3 mg/assay). Tubes were incubated at 37° C. for 15 minutes and rapidly vacuum filtered through Whatman GM/B filters and rinsed 4 times with 4 ml of ice cold 50 mM Tris buffer, pH 7.4. The filters were transferred to scintillation vials, equilibrated with 10 ml of scintillant (Scintosol, Isolab, Inc.) for 16 hours at 25° C. and the radioactivity determined in a liquid scintillation counter. Ki values were determined as described by Billard et al. using the relationship Ki =IC50 /(1+([L]/KD)) wherein IC50 =concentration of test drug necessary to displace 50% of specifically bound ^3 H-Sch 23390, [L]=concentration of radioligand used in the assay, and KD =dissociation constant.

[2] = Conditioned avoidance suppression in rats (CAR); type: in vivo; settings: rat; for minimal effective dose: read-out: Rat CAR (minimal effective dose, MED)
Procedure: N.Y. Acad. Sci. 66, 740 (1957). A series of experiments was carried out to assess the ability of the compounds of this invention to suppress the conditioned avoidance response (CAR) in rats.
Rats were required to jump onto a platform located 6.75 inches (17.15 cm) above the grid floor of an experimental chamber in response to a 5-second tone to avoid a 10-second foot shock (0.6 ma). Each experimental session consisted of 20 such trials presented at 30-second intervals. A correct CAR is scored whenever the rat jumps onto the platform during the tone (prior to foot shock). An escape response is scored when the rat jumps onto the platform during a shock. A response failure is defined as the lack of an escape response during the 10-second shock period.
Groups of 6-8 rats were trained in two consecutive days (total of 40 trials). Rats that reached criterion on day 2 (correct CARs on 16 or more of the 20 trials) were treated with either a test drug or vehicle on day 3. Suppression of CAR was analyzed statistically using Student's t-test comparing the performances of drug-treated to vehicle-treated rats.

D-2 receptor = target: T2, D-2 receptor (Rattus norvegicus, UniProt P61169); experiment: Competitive inhibition assay, displacement of 3H-spiperone (D2), rat striatal tissue; type: binding, rat (male Sprague-Dawley); settings: 3H-spiperone 0.2 nM, rat striatum; for Ki: pH 7.4, 37° C., 15 minutes
T2 construct: Striatal tissue was excised, pooled, and homogenized; from tissue; host or cells: rat brain striatum (male Sprague-Dawley)
T2 sequence (P61169 whole entry): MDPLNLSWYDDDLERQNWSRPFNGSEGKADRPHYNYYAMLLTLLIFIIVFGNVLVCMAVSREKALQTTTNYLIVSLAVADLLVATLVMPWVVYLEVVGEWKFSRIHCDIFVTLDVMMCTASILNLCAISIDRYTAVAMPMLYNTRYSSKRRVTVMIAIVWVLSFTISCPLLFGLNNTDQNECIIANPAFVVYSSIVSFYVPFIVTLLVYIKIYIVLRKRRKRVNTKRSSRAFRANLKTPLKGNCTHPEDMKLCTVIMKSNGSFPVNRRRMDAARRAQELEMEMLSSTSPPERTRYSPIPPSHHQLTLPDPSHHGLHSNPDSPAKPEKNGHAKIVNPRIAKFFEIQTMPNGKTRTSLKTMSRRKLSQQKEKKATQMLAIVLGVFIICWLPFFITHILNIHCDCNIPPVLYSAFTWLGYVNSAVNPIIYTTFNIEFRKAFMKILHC
Description: as §1, §2, §3, §4

[3] = @ 1 h, lowest dose tested that significantly (P<0.05) reduced avoidance responding

SMILES	Ki (dopamine D-1 receptor)	Ki (D-2 receptor)	other results
Cc1cc(C2CN(C)CCc3cc(Cl)c(O)cc32)c(C)[nH]1 (racemic) [(±)C]	2.8 nM	2450 nM	CAR, monkey ([1]; po @ 6 h): 1.5 mpk; minimal effective dose [2, 3]: 10 mg/kg; minimal effective dose ([2]; @ 6 h): 50 mg/kg
Cc1cc(C2CN(C)CCc3cc(Cl)c(O)cc32)c(C)[nH]1 (single isomer, unassigned; (-)) [(-)E]	41 nM	613 nM	
Cc1cc2c(cc1O)C(n1ccc3ccccc31)CN(C)CC2 (centres unmarked) [B]	607 nM		IC50 (D-2 receptor; printed as IC50 in the Ki column): > 10000 nM
CN1CCc2cc(Cl)c(O)cc2C(n2cccn2)C1 (centres unmarked) [Compound I]	12 nM	> 10000 nM	
Cc1[nH]c2ccccc2c1C1CN(C)CCc2cc(Cl)c(O)cc21 (centres unmarked) [J]	127 nM	> 10000 nM	
CN1CCc2cc(Cl)c(O)cc2C(c2c[nH]c3ccccc23)C1 (centres unmarked) [K]	55.2 nM	> 10000 nM	

Second part, led by results:

Ki (dopamine D-1 receptor)	Ki (D-2 receptor)	SMILES	other results
0.54 nM	590 nM	Cc1cc(C2CN(C)CCc3cc(Cl)c(O)cc32)c(C)[nH]1 (single isomer, unassigned; (+)) [(+)D]	tremors ([2]; 30 po): tremors at 30 po; minimal effective dose [2, 3]: 10 mg/kg
26 nM	> 10000 nM	CN1CCc2cc(Cl)c(O)cc2C(n2ccc3ccccc32)C1 (centres unmarked) [A]	
41 nM	10000 nM	CN1CCc2cc(Cl)c(O)cc2C(c2cccn2C)C1 (centres unmarked) [F]	
2.8 nM	383 nM	Cc1cc(C2CN(C)CCc3cc(Cl)c(O)cc32)c(C)n1C (centres unmarked) [G]	CAR, monkey ([1]; @ 4 h): 5 mpk; minimal effective dose [2, 3]: 10 mg/kg
2.2 nM	177 nM	CN1CCc2cc(Cl)c(O)cc2C(c2ccn(C)c2)C1 (centres unmarked) [H]	
